As a reminder, the IC50 is the concentration that inhibits the measured activity by half.

Molecules are shown by their SMILES.

Assay [1] can be described thus: Inhibition of alpha-glucosidase (unknown origin).
For assay [2], the system named is HepG2. The assay is described as follows: Anti-diabetic activity in insulin-resistant human HepG2 cells assessed as increase in insulin-stimulated 2-NBDG uptake at 10 uM pretreated for 24 hrs followed by 2-NBDG addition measured after 30 mins by fluorescence assay relative to control. Type of assay: functional.
For assay [3], the system named is HepG2. The assay is described as follows: Anti-diabetic activity in insulin-resistant human HepG2 cells assessed as increase in insulin-stimulated 2-NBDG uptake at 50 uM pretreated for 24 hrs followed by 2-NBDG addition measured after 30 mins by fluorescence assay relative to control. Type of assay: functional.
Assay [4] relates to HepG2. The assay is described as follows: Anti-diabetic activity in insulin-resistant human HepG2 cells assessed as increase in insulin-stimulated 2-NBDG uptake pretreated for 24 hrs followed by 2-NBDG addition measured after 30 mins by fluorescence assay. Type of assay: functional, cell-based.
The target of assay [5] is T1, Tyrosine-protein phosphatase non-receptor type 1 (Homo sapiens, UniProt P18031).
T1 sequence (P18031 whole entry): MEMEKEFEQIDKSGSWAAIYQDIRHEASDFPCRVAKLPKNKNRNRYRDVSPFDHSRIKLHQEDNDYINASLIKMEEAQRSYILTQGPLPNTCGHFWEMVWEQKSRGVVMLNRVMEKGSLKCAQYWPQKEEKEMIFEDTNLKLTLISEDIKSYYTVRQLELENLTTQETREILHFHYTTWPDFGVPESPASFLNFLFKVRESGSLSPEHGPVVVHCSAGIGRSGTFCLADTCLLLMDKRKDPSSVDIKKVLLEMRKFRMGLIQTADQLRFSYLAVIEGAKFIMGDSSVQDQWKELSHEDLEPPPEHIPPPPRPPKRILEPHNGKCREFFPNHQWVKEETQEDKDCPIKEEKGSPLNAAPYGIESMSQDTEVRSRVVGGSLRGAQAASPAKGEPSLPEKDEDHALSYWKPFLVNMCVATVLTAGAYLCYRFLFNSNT
The assay is described as follows: Inhibition of PTP1B (unknown origin) using pNPP as substrate pretreated for 10 mins followed by substrate addition measured after 20 mins by spectrophotometric method.

`C[C@H]1O[C@H](O[C@H]2[C@H](O)[C@@H](O)[C@@H](O[C@H]3[C@H](O)[C@@H](O)C(O)O[C@@H]3CO)O[C@@H]2CO)[C@H](O)[C@@H](O)[C@@H]1N[C@H]1C=C(CO)[C@@H](O)[C@H](O)[C@H]1O` (stereo partly drawn) [ACARBOSE]: inhibition in assay [1] was half-maximal at 178 µM (IC50).

Take `CN(C)C(=N)NC(=N)N` [METFORMIN]: the Activity in the assay with HepG2 [2] amounted to 125%.

For `O=C1C[C@@H](c2ccc(O)cc2)Oc2cc(O)cc(O)c21` [NARINGENIN], the Activity was 71.23% with HepG2 [3] and “Dose-dependent effect” in the assay on HepG2 [4]. Besides, the IC50 in assay [5] amounted to 130 µM; in assay [1] it was 10.6 µM.

With `C[C@@H]1O[C@@H](O[C@H]2[C@H](Oc3cc(O)c4c(c3)O[C@H](c3ccc(O)cc3)CC4=O)O[C@H](CO)[C@@H](O)[C@@H]2O)[C@H](O)[C@H](O)[C@H]1O` [NARINGIN], the figures for the Activity with HepG2 [3] and with HepG2 [4] were 82.17% and “Dose-dependent effect”, respectively. Besides, the values for the IC50 in assay [5] and in assay [1] were 91.8 µM and above 200 µM, respectively.

Take `C[C@@H]1O[C@@H](OC[C@H]2O[C@@H](Oc3cc(O)c4c(c3)O[C@H](c3ccc(O)cc3)CC4=O)[C@H](O)[C@@H](O)[C@@H]2O)[C@H](O)[C@H](O)[C@H]1O` [NARIRUTIN]: the Activity in the assay with HepG2 [3] is 86.93%; with HepG2 [4] it was “Dose-dependent effect”. The IC50 in assay [5] is 56.5 µM; in assay [1] it was above 200 µM.

With `O=C1C[C@@H](c2ccc(O)cc2)Oc2cc(O[C@@H]3O[C@H](CO)[C@@H](O)[C@H](O)[C@H]3O)cc(O)c21` [PRUNIN], the Activity in the assay with HepG2 [3] is 109.45%; in the assay on HepG2 [4], “Dose-dependent effect”. The IC50 in assay [5] turned out to be 17.5 µM; in assay [1] it was 106 µM.

(Values after ChEMBL document CHEMBL4028838, “Structure-related protein tyrosine phosphatase 1B inhibition by naringenin derivatives” (Bioorg Med Chem Lett, 2017).)
